Measured values: PMC6917776, “Discovery of a chemical probe for PRDM9” (Nature Communications, 2019)
Values joined by “and” are separate entries in the source; they are usually repeats but may differ in a detail not shown here. Equal entries are not always repeated.

Tests used:
[1] = target: PRDM9 (Homo sapiens, UniProt Q9NQV7); experiment: DSF thermal stabilisation, PRDM selectivity and titration; format: binding
Protocol: DSF measurements were performed as previously described[21] using a Light Cycler 480 II instrument from Roche Applied Science. […] Sypro Orange was purchased from Invitrogen as a 5000 × stock solution (concentration not specified by vendor) and was diluted 1:1000 to yield a 5 × working concentration. The temperature scan curves were fitted to a Boltzmann sigmoid function, and the Tm values were obtained from the midpoint of the transition.

[2] = tested on: panel of 108 enzymes and receptors; experiment: Eurofins Panlabs customized panel profiling; format: binding
[3] = target: T1, Adrenergic α2B (Homo sapiens, UniProt P18089); experiment: Eurofins Panlabs panel, radioligand binding; details: at 10 µM
T1 construct: NIMH Psychoactive Drug Screening Program, University of North Carolina at Chapel Hill

[4] = target: T2, Histamine H3 (Homo sapiens, UniProt Q9Y5N1); experiment: Eurofins Panlabs panel, radioligand binding; details: at 10 µM
T2 construct: NIMH Psychoactive Drug Screening Program, University of North Carolina at Chapel Hill

[5] = target: T3, Muscarinic M2 (Homo sapiens, UniProt P08172); experiment: Eurofins Panlabs panel, radioligand binding; details: at 10 µM
T3 construct: NIMH Psychoactive Drug Screening Program, University of North Carolina at Chapel Hill
T3 sequence (P08172 1-466): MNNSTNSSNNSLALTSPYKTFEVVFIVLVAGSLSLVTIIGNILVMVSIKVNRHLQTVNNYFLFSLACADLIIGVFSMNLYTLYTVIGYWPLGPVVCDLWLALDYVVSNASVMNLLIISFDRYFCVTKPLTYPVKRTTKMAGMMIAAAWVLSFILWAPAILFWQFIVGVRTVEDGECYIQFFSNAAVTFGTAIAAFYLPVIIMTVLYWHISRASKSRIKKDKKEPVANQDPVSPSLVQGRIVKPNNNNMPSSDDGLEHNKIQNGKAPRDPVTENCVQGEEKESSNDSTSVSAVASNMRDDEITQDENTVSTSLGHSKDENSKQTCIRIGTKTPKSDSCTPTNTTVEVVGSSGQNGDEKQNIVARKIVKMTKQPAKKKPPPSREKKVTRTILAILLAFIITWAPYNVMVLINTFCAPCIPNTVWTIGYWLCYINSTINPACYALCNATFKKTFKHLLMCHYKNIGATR

[6] = target: T4, Opiate µ receptor (Homo sapiens, UniProt P35372); experiment: Eurofins Panlabs panel, radioligand binding; details: at 10 µM
T4 construct: Eurofins Panlabs Discovery Services, Taiwan

[7] = target: T1, Adrenergic α2B; experiment: GPCR functional activity, GloSensor assay (agonist and antagonist mode); format: cell-based
Excerpt: (§1) Supplementary Figure 5. Assessment of GPCR functional activity. […]
(§2) profiles were generously provided by the National Institute of Mental Health’s (NIMH)
(§3) Psychoactive Drug Screening Program, (Contract # HHSN-271-2013-00017-C) directed by B.L.
(§4) Roth, University of North Carolina at Chapel Hill and Project Officer J. Driscoll at NIMH,
(§5) Bethesda, Maryland, USA. Further details available at https://pdspdb.unc.edu/pdspWeb/.
(§6) MOR stands for “Opiate µ receptor”. […]
(§7) […] Source data are provided as a

[8] = target: T5, Opiate µ receptor (MOR) (Homo sapiens, UniProt P35372); experiment: as above; format: cell-based; details: for MOR Gi Agonist, raw signal: replicates 1-3; for MOR Tango Antagonist, raw signal: replicates 1-4
T5 construct: NIMH Psychoactive Drug Screening Program, University of North Carolina at Chapel Hill
Excerpt: as §1, §2, §3, §4, §5, §6, §7

[9] = MRK-740 0.244141 uM, in the absence of SAM
[10] = MRK-740 0.244141 uM, in the presence of 2 mM of SAM
[11] = MRK-740 0.488281 uM, in the absence of SAM
[12] = MRK-740 0.488281 uM, in the presence of 2 mM of SAM
[13] = MRK-740 0.976563 uM, in the absence of SAM
[14] = MRK-740 0.976563 uM, in the presence of 2 mM of SAM
[15] = MRK-740 1.95312 uM, in the absence of SAM
[16] = MRK-740 1.95312 uM, in the presence of 2 mM of SAM
[17] = MRK-740 3.90625 uM, in the absence of SAM
[18] = MRK-740 3.90625 uM, in the presence of 2 mM of SAM
[19] = MRK-740 7.8125 uM, in the absence of SAM
[20] = MRK-740 7.8125 uM, in the presence of 2 mM of SAM
[21] = MRK-740 15.625 uM, in the absence of SAM
[22] = MRK-740 15.625 uM, in the presence of 2 mM of SAM
[23] = MRK-740 31.25 uM, in the absence of SAM
[24] = MRK-740 31.25 uM, in the presence of 2 mM of SAM
[25] = MRK-740 62.5 uM, in the absence of SAM
[26] = MRK-740 62.5 uM, in the presence of 2 mM of SAM
[27] = MRK-740 125 uM, in the absence of SAM
[28] = MRK-740 125 uM, in the presence of 2 mM of SAM
[29] = MRK-740 250 uM, in the absence of SAM
[30] = MRK-740 250 uM, in the presence of 2 mM of SAM
[31] = MRK-740 500 uM, in the absence of SAM
[32] = MRK-740 500 uM, in the presence of 2 mM of SAM

Chain of PRDM9 (Q9NQV7 whole entry): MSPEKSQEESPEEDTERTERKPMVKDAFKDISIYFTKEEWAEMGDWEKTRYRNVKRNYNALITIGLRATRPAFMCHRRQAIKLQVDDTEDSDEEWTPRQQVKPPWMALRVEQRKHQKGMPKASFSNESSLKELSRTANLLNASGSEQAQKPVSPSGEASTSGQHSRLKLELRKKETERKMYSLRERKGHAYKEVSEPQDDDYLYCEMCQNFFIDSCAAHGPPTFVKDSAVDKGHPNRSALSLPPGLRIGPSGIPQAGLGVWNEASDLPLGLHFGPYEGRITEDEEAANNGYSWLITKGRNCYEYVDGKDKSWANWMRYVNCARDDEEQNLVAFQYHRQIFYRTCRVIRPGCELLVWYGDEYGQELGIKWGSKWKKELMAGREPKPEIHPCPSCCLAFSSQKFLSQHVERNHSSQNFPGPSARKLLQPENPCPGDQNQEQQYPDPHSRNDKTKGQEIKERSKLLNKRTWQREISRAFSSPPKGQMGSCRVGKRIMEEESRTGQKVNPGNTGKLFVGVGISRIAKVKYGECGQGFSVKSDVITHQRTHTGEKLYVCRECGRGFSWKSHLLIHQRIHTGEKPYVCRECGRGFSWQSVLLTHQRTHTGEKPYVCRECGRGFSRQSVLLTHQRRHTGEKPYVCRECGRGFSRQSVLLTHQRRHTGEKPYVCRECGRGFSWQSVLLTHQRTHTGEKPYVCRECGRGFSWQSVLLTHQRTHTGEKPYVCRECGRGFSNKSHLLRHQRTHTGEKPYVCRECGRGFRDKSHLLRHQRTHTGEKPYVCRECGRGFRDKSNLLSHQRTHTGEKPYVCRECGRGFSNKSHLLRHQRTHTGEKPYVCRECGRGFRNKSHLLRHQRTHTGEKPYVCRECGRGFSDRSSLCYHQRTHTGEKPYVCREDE
T5 sequence (P35372 whole entry): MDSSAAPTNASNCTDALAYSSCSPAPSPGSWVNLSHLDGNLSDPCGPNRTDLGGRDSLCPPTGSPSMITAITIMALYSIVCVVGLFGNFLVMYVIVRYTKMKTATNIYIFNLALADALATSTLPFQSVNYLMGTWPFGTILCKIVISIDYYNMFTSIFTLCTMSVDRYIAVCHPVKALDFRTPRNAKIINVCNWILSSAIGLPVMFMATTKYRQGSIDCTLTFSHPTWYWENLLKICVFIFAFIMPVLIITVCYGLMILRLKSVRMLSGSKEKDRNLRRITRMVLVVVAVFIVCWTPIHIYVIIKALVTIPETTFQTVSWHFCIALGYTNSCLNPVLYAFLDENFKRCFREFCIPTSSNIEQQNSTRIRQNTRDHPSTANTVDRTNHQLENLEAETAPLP
T1 sequence (P18089 whole entry): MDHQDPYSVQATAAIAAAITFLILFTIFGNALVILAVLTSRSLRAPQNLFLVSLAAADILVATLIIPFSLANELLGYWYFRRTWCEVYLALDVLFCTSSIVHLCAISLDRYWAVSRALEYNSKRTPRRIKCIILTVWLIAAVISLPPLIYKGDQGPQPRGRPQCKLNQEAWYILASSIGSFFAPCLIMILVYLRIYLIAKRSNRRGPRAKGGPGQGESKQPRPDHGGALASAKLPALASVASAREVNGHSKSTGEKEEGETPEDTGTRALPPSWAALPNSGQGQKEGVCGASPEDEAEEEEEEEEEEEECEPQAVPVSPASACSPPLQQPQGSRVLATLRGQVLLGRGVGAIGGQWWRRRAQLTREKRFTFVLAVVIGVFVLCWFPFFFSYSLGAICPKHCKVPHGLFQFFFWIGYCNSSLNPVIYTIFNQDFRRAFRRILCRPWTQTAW
T2 sequence (Q9Y5N1 whole entry): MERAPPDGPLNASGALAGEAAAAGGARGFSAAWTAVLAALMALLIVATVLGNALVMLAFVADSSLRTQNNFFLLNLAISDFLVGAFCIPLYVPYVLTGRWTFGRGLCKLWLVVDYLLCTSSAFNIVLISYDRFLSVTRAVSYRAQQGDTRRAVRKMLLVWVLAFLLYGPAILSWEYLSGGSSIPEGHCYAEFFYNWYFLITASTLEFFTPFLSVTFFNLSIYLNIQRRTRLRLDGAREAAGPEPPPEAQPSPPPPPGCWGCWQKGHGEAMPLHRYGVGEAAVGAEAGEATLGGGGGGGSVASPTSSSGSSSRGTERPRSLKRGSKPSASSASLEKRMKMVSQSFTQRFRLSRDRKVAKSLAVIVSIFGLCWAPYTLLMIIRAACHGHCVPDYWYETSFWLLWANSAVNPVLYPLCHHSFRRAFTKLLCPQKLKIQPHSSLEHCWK
T4 sequence (P35372 whole entry): as the sequence (P35372 whole entry) above

COc1cc(OC)cc(-c2noc(N3CCN(C)C4(CCN(c5ccnc(C)c5)CC4)C3)n2)c1 [MRK-740]
∆Tm, Average (n=3) [1, 9]: -0.02041 ⁰C | ∆Tm, replicates [1, 9]: 0.1071 ⁰C and -0.1796 ⁰C and 0.01126 ⁰C | ∆Tm, Average (n=3) [1, 10]: 0.008307 ⁰C | ∆Tm, replicates [1, 10]: 0.03434 ⁰C and -0.02437 ⁰C and 0.01495 ⁰C | ∆Tm, Average (n=3) [1, 11]: 0.01061 ⁰C | ∆Tm, replicates [1, 11]: 0.0928 ⁰C and -0.07107 ⁰C and 0.01011 ⁰C | ∆Tm, Average (n=3) [1, 12]: 0.1496 ⁰C | ∆Tm, replicates [1, 12]: 0.1732 ⁰C and 0.04052 ⁰C and 0.2352 ⁰C | ∆Tm, Average (n=3) [1, 13]: 0.04508 ⁰C | ∆Tm, replicates [1, 13]: 0.1528 ⁰C and -0.2157 ⁰C and 0.1982 ⁰C | ∆Tm, Average (n=3) [1, 14]: 0.2255 ⁰C | ∆Tm, replicates [1, 14]: 0.2233 ⁰C and 0.03455 ⁰C and 0.4187 ⁰C | ∆Tm, Average (n=3) [1, 15]: -0.08242 ⁰C | ∆Tm, replicates [1, 15]: -0.00371 ⁰C and -0.4167 ⁰C and 0.1731 ⁰C | ∆Tm, Average (n=3) [1, 16]: 0.4191 ⁰C | ∆Tm, replicates [1, 16]: 0.4623 ⁰C and 0.3242 ⁰C and 0.4707 ⁰C | ∆Tm, Average (n=3) [1, 17]: -0.01426 ⁰C | ∆Tm, replicates [1, 17]: 0.02232 ⁰C and -0.1544 ⁰C and 0.08926 ⁰C | ∆Tm, Average (n=3) [1, 18]: 0.7764 ⁰C | ∆Tm, replicates [1, 18]: 0.7056 ⁰C and 0.7972 ⁰C and 0.8264 ⁰C | ∆Tm, Average (n=3) [1, 19]: 0.1037 ⁰C | ∆Tm, replicates [1, 19]: 0.226 ⁰C and -0.09012 ⁰C and 0.1752 ⁰C | ∆Tm, Average (n=3) [1, 20]: 1.337 ⁰C | ∆Tm, replicates [1, 20]: 1.344 ⁰C and 1.221 ⁰C and 1.444 ⁰C | ∆Tm, Average (n=3) [1, 21]: -0.1063 ⁰C | ∆Tm, replicates [1, 21]: -0.01797 ⁰C and -0.3914 ⁰C and 0.09041 ⁰C | ∆Tm, Average (n=3) [1, 22]: 1.956 ⁰C | ∆Tm, replicates [1, 22]: 2.017 ⁰C and 1.819 ⁰C and 2.032 ⁰C | ∆Tm, Average (n=3) [1, 23]: 0.1387 ⁰C | ∆Tm, replicates [1, 23]: 0.3126 ⁰C and 0.00612 ⁰C and 0.09739 ⁰C | ∆Tm, Average (n=3) [1, 24]: 2.652 ⁰C | ∆Tm, replicates [1, 24]: 2.731 ⁰C and 2.527 ⁰C and 2.698 ⁰C | ∆Tm, Average (n=3) [1, 25]: 0.1127 ⁰C | ∆Tm, replicates [1, 25]: 0.2122 ⁰C and -0.02556 ⁰C and 0.1514 ⁰C | ∆Tm, Average (n=3) [1, 26]: 3.593 ⁰C | ∆Tm, replicates [1, 26]: 3.459 ⁰C and 3.608 ⁰C and 3.713 ⁰C | ∆Tm, Average (n=3) [1, 27]: 0.3345 ⁰C | ∆Tm, replicates [1, 27]: 0.254 ⁰C and 0.2924 ⁰C and 0.4572 ⁰C | ∆Tm, Average (n=3) [1, 28]: 4.481 ⁰C | ∆Tm, replicates [1, 28]: 4.418 ⁰C and 4.4008 ⁰C and 4.624 ⁰C | ∆Tm, Average (n=3) [1, 29]: 0.7417 ⁰C | ∆Tm, replicates [1, 29]: 0.7489 ⁰C and 0.7435 ⁰C and 0.7328 ⁰C | ∆Tm, Average (n=3) [1, 30]: 5.104 ⁰C | ∆Tm, replicates [1, 30]: 5.051 ⁰C and 5.067 ⁰C and 5.196 ⁰C | ∆Tm, Average (n=3) [1, 31]: 1.354 ⁰C | ∆Tm, replicates [1, 31]: 1.288 ⁰C and 1.351 ⁰C and 1.422 ⁰C | ∆Tm, Average (n=3) [1, 32]: 5.9348 ⁰C | ∆Tm, replicates [1, 32]: 5.8495 ⁰C and 5.999 ⁰C and 5.956 ⁰C | Panel of 108 enzymes and receptors: targets with significant (>50% at 10 µM) binding [2]: binding only to Adrenergic α2B, Histamine H3, Muscarinic M2 and Opiate µ receptors | Binding [3]: > 50% | Binding [4]: > 50% | Binding [5]: > 50% | Binding [6]: > 50% | Functional activity (in words) [7]: no functional activity | Functional activity (in words) ([8]; agonist and antagonist mode): some potential agonistic activity | MOR Gi Agonist, raw signal ([8]; log[MRK-740] -4.52): 523.998 and 475.715 and 479.854 | MOR Tango Antagonist, raw signal ([8]; log[MRK-740] -4.52): 6964.63 and 7700.23 and 6817.3 and 8343.47 | MOR Gi Agonist, raw signal ([8]; log[MRK-740] -5): 470.197 and 394.324 and 410.878 | MOR Tango Antagonist, raw signal ([8]; log[MRK-740] -5): 5111.95 and 4601.78 and 6359.89 and 4362.1 | MOR Gi Agonist, raw signal ([8]; log[MRK-740] -5.52): 427.432 and 384.668 and 477.095 | MOR Tango Antagonist, raw signal ([8]; log[MRK-740] -5.52): 5940.98 and 5705.68 and 7225.22 and 4368.69 | MOR Gi Agonist, raw signal ([8]; log[MRK-740] -6): 441.227 and 430.191 and 452.263 | MOR Tango Antagonist, raw signal ([8]; log[MRK-740] -6): 5577.04 and 4612.78 and 4219.16 and 5663.9 | MOR Gi Agonist, raw signal ([8]; log[MRK-740] -6.52): 489.51 and 460.54 and 466.058 | MOR Tango Antagonist, raw signal ([8]; log[MRK-740] -6.52): 4965.72 and 6716.14 and 4770.01 and 6856.88 | MOR Gi Agonist, raw signal ([8]; log[MRK-740] -7): 347.421 and 472.956 and 397.083 | MOR Tango Antagonist, raw signal ([8]; log[MRK-740] -7): 4544.61 and 3827.75 and 5625.42 and 6334.6 | MOR Gi Agonist, raw signal ([8]; log[MRK-740] -7.52): 452.263 and 417.776 and 391.565 | MOR Tango Antagonist, raw signal ([8]; log[MRK-740] -7.52): 9293.5 and 6501.73 and 7215.33 and 6591.89 | MOR Gi Agonist, raw signal ([8]; log[MRK-740] -8): 452.263 and 390.186 and 408.119 | MOR Tango Antagonist, raw signal ([8]; log[MRK-740] -8): 5778.25 and 5276.87 and 5467.09 and 6480.84 | MOR Gi Agonist, raw signal ([8]; log[MRK-740] -8.52): 394.631 and 390.374 and 448.545 | MOR Tango Antagonist, raw signal ([8]; log[MRK-740] -8.52): 5605.48 and 3120.04 and 6717.48 and 4672.02 | MOR Gi Agonist, raw signal ([8]; log[MRK-740] -9): 413.075 and 366.255 and 451.383 | MOR Tango Antagonist, raw signal ([8]; log[MRK-740] -9): 3692.19 and 5665.93 and 3690.78 and 6270.43 | MOR Gi Agonist, raw signal ([8]; log[MRK-740] -9.52): 424.425 and 437.195 and 438.613 | MOR Tango Antagonist, raw signal ([8]; log[MRK-740] -9.52): 5109.22 and 7289.66 and 4705.76 and 4478.02 | MOR Gi Agonist, raw signal ([8]; log[MRK-740] -10): 492.528 and 401.725 and 449.964 | MOR Tango Antagonist, raw signal ([8]; log[MRK-740] -10): 3780.75 and 4352.9 and 3641.58 and 3605.03 | MOR Gi Agonist, raw signal ([8]; log[MRK-740] -10.52): 408.819 and 508.135 and 464.152 | MOR Tango Antagonist, raw signal ([8]; log[MRK-740] -10.52): 4105.49 and 4174.37 and 7219.37 and 6121.41 | MOR Gi Agonist, raw signal ([8]; log[MRK-740] -11): 516.647 and 510.972 and 540.767 | MOR Tango Antagonist, raw signal ([8]; log[MRK-740] -11): 4295.27 and 3517.87 and 4659.37 and 5872.58 | MOR Gi Agonist, raw signal ([8]; log[MRK-740] -11.52): 627.314 and 488.271 and 566.306 | MOR Tango Antagonist, raw signal ([8]; log[MRK-740] -11.52): 8307.51 and 6114.38 and 4948.96 and 5192.17 | MOR Gi Agonist, raw signal ([8]; log[MRK-740] -12): 684.066 and 560.63 and 516.647 | MOR Tango Antagonist, raw signal ([8]; log[MRK-740] -12): 4510.35 and 4657.96 and 5814.94 and 6055.34
